“Also recorded” adds a separate entry of the source.
Tests used:
[1] = system: SD rats (type 2 diabetes model); test: model for rat urine glucose excretion (glucose-oxidase method); assay type: in vivo
Procedure: The health SD rats are injected intraperitoneally with multiple low doses of streptozotocin for modeling (type 2 diabetes model) after feeding with high-fat and high-sucrose diet, and the content of blood glucose is measured before and after modeling. After the modeling successful, the rats for modeling are randomly divided (8 rats/group) into one blank group (administering the same volume of 0.5% CMC sodium solution) and several groups for compounds to be tested (6 mg/kg) according to the content of 24-hour urine glucose and the body weight. Rats in each group are fasted for 16 hours before experiment. The experimental rats are administered intragastrically with glucose (2 g/kg) at 0.5 h after intragastrical administration with compounds to be tested. The urine is collected at the time-period of 0-12 h after administration, and the urine glucose values are measured at each time-period by glucose-oxidase method.
The inhibiting activity of the cocrystal of I-D1-6 and L-proline on SGLT2 is measured by the model for rat urine glucose excretion.
The health SD rats are injected intraperitoneally with multiple low doses of streptozotocin for modeling (type 2 diabetes model) after feeding with high-fat and high-sucrose diet for one month, and the content of blood glucose is measured before and after modeling. After the modeling successful, the rats for modeling are randomly divided (8 rats/group) into one blank group (administering the same volume of 0.5% CMC sodium solution) and groups of tested compound (6 mg/kg) according to the content of 24-hour urine glucose and the body weight. Rats in each group are fasted for 16 hours before experiment. The experimental rats are administered intragastrically with the glucose (2 g/kg) at 0.5 h after intragastrical administration with the cocrystal of I-D1-6 and L-proline prepared in Example 138. The urine is collected at the time-period of 0-12 h after administration, and the urine glucose values are measured at each time-period by glucose-oxidase method.

[2] = molecular target: hSGLT2 (Homo sapiens (Human), UniProt P31639); test: IC50 of inhibition on SGLT2; assay type: cell-based; conditions: for IC50 / Seletivity IC50 (hSGLT1)/IC50 (hSGLT2): Table 3
Sequence of hSGLT2 (P31639 whole entry): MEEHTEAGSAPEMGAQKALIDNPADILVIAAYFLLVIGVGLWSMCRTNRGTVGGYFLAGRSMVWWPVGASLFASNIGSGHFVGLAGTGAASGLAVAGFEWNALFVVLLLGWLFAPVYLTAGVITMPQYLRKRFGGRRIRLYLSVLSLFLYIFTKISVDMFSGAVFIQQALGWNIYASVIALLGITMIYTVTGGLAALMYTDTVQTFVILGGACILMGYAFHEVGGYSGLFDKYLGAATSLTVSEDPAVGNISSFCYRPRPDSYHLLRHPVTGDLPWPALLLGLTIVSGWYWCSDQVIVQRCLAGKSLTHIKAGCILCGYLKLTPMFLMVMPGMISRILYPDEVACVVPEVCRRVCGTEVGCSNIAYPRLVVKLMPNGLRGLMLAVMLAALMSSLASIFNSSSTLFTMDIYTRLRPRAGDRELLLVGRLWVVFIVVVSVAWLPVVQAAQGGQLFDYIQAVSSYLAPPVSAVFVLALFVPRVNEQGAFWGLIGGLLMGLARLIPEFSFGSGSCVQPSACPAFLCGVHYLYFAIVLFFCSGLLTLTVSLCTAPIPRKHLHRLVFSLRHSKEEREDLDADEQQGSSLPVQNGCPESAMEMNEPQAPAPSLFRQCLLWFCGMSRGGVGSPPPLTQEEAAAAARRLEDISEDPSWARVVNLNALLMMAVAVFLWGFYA

[3] = influencing factors test: light stability; assay type: physicochemical; conditions: for storage stability (in words): two-week stability test under light, higher temperature, higher humidity; for Appearance / Number of impurity / Total amount of impurity (%): listed as I-D1-6 raw materials
Description: (§1) The appearance, number of impurity and the amount of impurity (measured by HPLC) are compared with that of day 0.

[4] = molecular target: hSGLT1 (Homo sapiens (Human), UniProt P13866); test: IC50 of inhibition on SGLT1; assay type: cell-based; conditions: for IC50: Table 3
Sequence of hSGLT1 (P13866 whole entry): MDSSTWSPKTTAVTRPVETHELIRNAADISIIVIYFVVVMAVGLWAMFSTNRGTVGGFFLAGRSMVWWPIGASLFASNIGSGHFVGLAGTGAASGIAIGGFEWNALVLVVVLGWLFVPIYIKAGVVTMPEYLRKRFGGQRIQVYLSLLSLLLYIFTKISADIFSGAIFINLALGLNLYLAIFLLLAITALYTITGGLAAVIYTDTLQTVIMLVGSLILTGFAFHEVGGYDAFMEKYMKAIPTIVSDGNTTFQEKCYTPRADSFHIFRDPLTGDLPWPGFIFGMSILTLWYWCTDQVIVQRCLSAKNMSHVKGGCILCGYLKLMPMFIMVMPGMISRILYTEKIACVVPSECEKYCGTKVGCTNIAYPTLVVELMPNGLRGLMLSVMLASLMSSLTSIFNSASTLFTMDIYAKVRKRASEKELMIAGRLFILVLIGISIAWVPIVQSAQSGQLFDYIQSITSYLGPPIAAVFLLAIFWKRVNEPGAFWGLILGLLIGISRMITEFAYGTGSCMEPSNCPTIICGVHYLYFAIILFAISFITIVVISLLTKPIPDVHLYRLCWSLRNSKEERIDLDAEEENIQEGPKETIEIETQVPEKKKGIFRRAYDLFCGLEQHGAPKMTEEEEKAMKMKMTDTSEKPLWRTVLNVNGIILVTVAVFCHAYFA

[5] = influencing factors test: higher temperature stability; assay type: physicochemical; conditions: higher temperature (45° C.), listed as I-D1-6 raw materials
Description: as §1

[6] = influencing factors test: higher humidity stability; assay type: physicochemical
Description: as §1

[7] = system: Mice; conditions: mice, 10 mice/group, single intragastric dose 750 mg/kg, within one week;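 further: mice weighing 18–20 g, both sexes in equal proportion within each group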
Procedure: Mice (18-20 g) with equal numbers of male and female are divided into groups (10 mice/group), after normal feeding for 3 days, fasted for 12 hours, and then administered intragastrically with a single dose of 750 mg/kg compound respectively.

[8] = higher humidity, day 0, HPLC, listed as I-D1-6 raw materials
[9] = higher humidity, day 7, HPLC, listed as I-D1-6 raw materials
[10] = higher humidity, day 14, HPLC, listed as I-D1-6 raw materials

SMILES: CCOc1ccc(Cc2cc(C3OC(C)C(O)C(O)C3O)ccc2Cl)cc1 [cocrystal of I-D1-6 and L-proline, cocrystal of (1S)-1-[4-chloro-3-(4-ethoxybenzyl)phenyl]-1,6-dideoxy-D-glucose (I-D1-6) and L-proline]
- urine glucose production ([1]; type 2 diabetes model SD rats, 6 mg/kg intragastrically, glucose 2 g/kg at 0.5 h, urine 0-12 h): 912 mg urine glucose/200 g body weight
- Selectivity IC50 (hSGLT1)/IC50 (hSGLT2) ([2]; Table 4, cocrystal prepared in Example 138): 375
- storage stability (in words) [3]: good storage stability
- storage stability (in words) ([3]; listed as cocrystal): better storage stability

SMILES: COc1ccc(Cc2cc(C3OC(C)C(O)C(O)C3O)ccc2Cl)cc1 (stereo not shown) [drawing 308]
- IC50 [2]: 3.3 nM
- Seletivity IC50 (hSGLT1)/IC50 (hSGLT2) [2]: 26
- IC50 [4]: 86 nM

SMILES: CCOc1ccc(Cc2cc(C3OC(C)C(O)C(O)C3O)ccc2Cl)cc1 (stereo not shown) [drawing 309]
- IC50 [2]: 0.67 nM
- Seletivity IC50 (hSGLT1)/IC50 (hSGLT2) [2]: 374
- IC50 [4]: 251 nM

SMILES: CCOc1ccc(Cc2cc(C3OC(C)C(O)C(O)C3O)ccc2Cl)cc1 [I-D1-6, (1S)-1-[4-chloro-3-(4-ethoxybenzyl)phenyl]-1,6-dideoxy-D-glucose]
- urine glucose excretion effect (in words) ([1]; comparison in words, rat urine glucose excretion model, 6 mg/kg): stronger urine glucose excretion effect
- Number of impurity ([5]; day 0, HPLC): 7
- Total amount of impurity (%) ([5]; day 0, HPLC): 0.89%
- Appearance ([5]; day 0): white,
- Number of impurity ([5]; day 7, HPLC): 8
- Total amount of impurity (%) ([5]; day 7, HPLC): 0.97%
- Appearance ([5]; day 7): white,
- Number of impurity ([5]; day 14, HPLC): 9
- Total amount of impurity (%) ([5]; day 14, HPLC): 1.13%
- Appearance ([5]; day 14): white,
- inhibition to SGLT2 (in words) ([2]; in words): inhibitory effect on SGLT2 enzyme; also recorded: much stronger inhibition to SGLT2
- selectivity on SGLT1/SGLT2 (in words) ([2]; in words): much better selectivity on SGLT1/SGLT2
- Appearance ([6]; higher humidity (30% relative humidity at 30° C.), day 0, listed as I-D1-6 raw materials): white,
- Number of impurity [6, 8]: 7
- Total amount of impurity (%) [6, 8]: 0.89%
- Appearance ([6]; higher humidity, day 7): white
- Number of impurity [6, 9]: 7
- Total amount of impurity (%) [6, 9]: 0.93%
- Appearance ([6]; higher humidity, day 14): white
- Number of impurity [6, 10]: 8
- Total amount of impurity (%) [6, 10]: 1.08%
- Appearance ([3]; light (natural daylight, about 80000 Lx), day 0): a white,
- Number of impurity ([3]; light, day 0, HPLC): 7
- Total amount of impurity (%) ([3]; light, day 0, HPLC): 0.89%
- Number of impurity ([3]; light, day 7, HPLC): 7
- Total amount of impurity (%) ([3]; light, day 7, HPLC): 0.93%
- Appearance ([3]; light, day 7): a white,
- Number of impurity ([3]; light, day 14, HPLC): 7
- Total amount of impurity (%) ([3]; light, day 14, HPLC): 0.96%
- Appearance ([3]; light, day 14): a white,
- inhibition to SGLT1 (in words) ([4]; in words): much less inhibition to SGLT1

SMILES: Cc1ccc(C2OC(C)C(O)C(O)C2O)cc1Cc1ccc(-c2ccc(F)cc2)s1 (stereo not shown) [drawing 281]
- Behaviors after administration with the compound to be tested (deaths) [7]: 4 dead

SMILES: OCC1OC(c2ccc(Cl)c(Cc3ccc(O[C@H]4CCOC4)cc3)c2)C(O)C(O)C1O (stereo partly shown) [drawing 276]
- Behaviors after administration with the compound to be tested (deaths) [7]: 7 dead

SMILES: CCOc1ccc(Cc2cc(C3SC(CO)C(O)CC3O)c(OC)cc2C)cc1 (stereo not shown) [drawing 300]
- Behaviors after administration with the compound to be tested (deaths) [7]: 0 dead

SMILES: CCc1ccc(Cc2c(Cl)ccc3c2COC32OC(CO)CC(O)C2O)cc1 (stereo not shown) [drawing 298]
- Behaviors after administration with the compound to be tested (deaths) [7]: 5 dead

SMILES: CCOc1ccc(Cc2cc(C3OC(CO)CC(O)C3O)ccc2Cl)cc1 (stereo not shown) [drawing 269]
- Behaviors after administration with the compound to be tested (deaths) [7]: 2 dead

SMILES: OCC1CC(O)C(O)C(c2ccc(Cl)c(Cc3ccc(O[C@H]4CCOC4)cc3)c2)O1 (stereo partly shown) [drawing 297]
- Behaviors after administration with the compound to be tested (deaths) [7]: 2 dead

SMILES: CCCOc1ccc(Cc2cc(C3OC(C)C(O)C(O)C3O)ccc2Cl)cc1 (stereo not shown) [drawing 268]
- Behaviors after administration with the compound to be tested (deaths) [7]: 6 dead

SMILES: OCC1OC(c2ccc(F)c(Cc3cc4ccccc4s3)c2)CC(O)C1O (stereo not shown) [drawing 285]
- Behaviors after administration with the compound to be tested (deaths) [7]: 3 dead

SMILES: CCOc1ccc(Cc2cc([C@]34OC[C@](CO)(O3)[C@@H](O)[C@H](O)[C@H]4O)ccc2Cl)cc1 [drawing 267]
- Behaviors after administration with the compound to be tested (deaths) [7]: 9 dead

SMILES: CCOc1ccc(Cc2cc(C3OC(C)C(O)C(O)C3O)ccc2C)cc1 (stereo not shown) [drawing 310]
- IC50 [2]: 7.8 nM
- Seletivity IC50 (hSGLT1)/IC50 (hSGLT2) [2]: 24
- IC50 [4]: 187 nM

SMILES: CCOc1ccc(Cc2cc([C@]34OC[C@](CO)(O3)[C@@H](O)C[C@H]4O)ccc2Cl)cc1 [drawing 304]
- Behaviors after administration with the compound to be tested (deaths) [7]: 3 dead

SMILES: CCOc1ccc(Cc2cc(C3CC(O)C(O)C(CO)O3)ccc2Cl)cc1 (stereo not shown) [drawing 270]
- Behaviors after administration with the compound to be tested (deaths) [7]: 2 dead

SMILES: OCC1CCC(O)C(c2ccc(Cl)c(Cc3ccc(O[C@H]4CCOC4)cc3)c2)O1 (stereo partly shown) [drawing 306]
- Behaviors after administration with the compound to be tested (deaths) [7]: 2 dead

SMILES: CCOc1ccc(Cc2cc(C3SC(CO)C(O)CC3O)c(OC)cc2C)cc1 (stereo not shown) [drawing 301]
- Behaviors after administration with the compound to be tested (deaths) [7]: 3 dead

SMILES: CCOc1ccc(Cc2cc([C@@]34OC[C@@](CO)(C[C@H](O)[C@H]3O)O4)ccc2Cl)cc1 [drawing 293]
- Behaviors after administration with the compound to be tested (deaths) [7]: 4 dead

From US9505734B2, “Phenyl C-glucoside derivative containing deoxyglucose structure, preparation method and use thereof” (Tianjin Institute of Pharmaceutical Research, priority 2012, dated 2016)
